pEC50: −log10 of the molar value.

These results are taken from patent US10683299B2, “Pyrazolopyrazine and triazolopyrazine compounds for the treatment of infectious diseases” (Hoffmann-La Roche Inc., priority 2017, dated 2020).

For the first experiment, the system named is HBV replication in HepG2.2.15 cells. In words: HBV inhibition assay in HepG2.2.15 cells (extracellular HBV DNA by qPCR). The experiment is classed as cell-based, Hepatitis B virus. Particulars: Hepatitis B virus, HepG2.2.15, 120 h, five days after compound treatment, extracellular HBV DNA in culture supernatant by qPCR, read-out: EC50 (effective compound concentration at which HBV replication was inhibited by 50%). The text has this:
HepG2.2.15 is a stably-transfected cell line containing the HBV genome. It is derived from the hepatoblastoma cell line Hep G2 (American Type Culture Collection, ATCC® HB-8065™) by the published procedures described in reference: M A Selles et al. Proc. Natl. Acad. Sci. USA 1987, 84, 1005-1009. The cell line was maintained in Dulbecco's modified Eagle's medium and nutrient mixture F-12 (DMEM/F-12, Gibco, Cat. #: 11320-033) supplemented with 10% fetal bovine serum (Gibco, Cat. #:10099-141), 100 U/mL penicillin, 100 μg/mL streptomycin (Gibco, Cat. #:15140-122), and 0.3 mg/mL of G418 Sulfate (Gibco, Cat. #: 10131-027).
HepG2.2.15 cells were seeded into 96-well plates at a density of 3×10^4 cells per well in culture media of 100 μL DMEM/F-12 supplemented with 2.5% fetal bovine serum, 100 U/mL penicillin, 100 μg/mL streptomycin and cultured overnight at 37° C. The test compounds were serially half-log diluted in DMSO, then diluted 100 times in culture media. 100 μL culture media containing diluted compounds were added into the plates to reach 0.5% final concentration of DMSO in every well. Five days after compound treatment, culture supernatant was collected for further analysis.
For quantitative PCR detection of extracellular HBV DNA, culture supernatant was processed by 500 μg/mL Proteinase K (Sigma, Cat. #:P2308) digestion at 50° C. for 1 hour. After heat inactivation of the enzyme at 95° C. for 15 minutes, the samples were subjected to HBV DNA quantification by qPCR. The effective compound concentration at which HBV replication was inhibited by 50% (EC50) was determined.
For `C[C@H]1Cn2ncc(N3CC(c4ccccc4C(=O)O)CS3(=O)=O)c2CN1C(=O)Nc1cc(F)c(F)c(F)c1` (stereo partly drawn) [Example 36, 2-[2-[(6S)-6-methyl-5-[(3,4,5-trifluorophenyl)carbamoyl]-6,7-dihydro-4H-pyrazolo[1,5-a]pyrazin-3-yl]-1,1-dioxo-1,2-thiazolidin-4-yl]benzoic acid], the pEC50 was 7.77.

For the compound `C[C@H]1Cn2ncc(N3CCCS3(=O)=O)c2CN1C(=O)Nc1ccsc1` [Example 10, (6S)-3-(1,1-dioxo-1,2-thiazolidin-2-yl)-6-methyl-N-(3-thienyl)-6,7-dihydro-4H-pyrazolo[1,5-a]pyrazine-5-carboxamide], the pEC50 was 6.24.

Consider `CC1C(O)CS(=O)(=O)N1c1cnn2c1CN(C(=O)Nc1cc(F)c(F)c(F)c1)[C@@H](C)C2` (stereo partly drawn) [Example 28-1, (6S)-3-(4-hydroxy-3-methyl-1,1-dioxo-1,2-thiazolidin-2-yl)-6-methyl-N-(3,4,5-trifluorophenyl)-6,7-dihydro-4H-pyrazolo[1,5-a]pyrazine-5-carboxamide], for which the pEC50 was 7.68.

Turning to `C[C@H]1Cn2ncc(N3CC(O)CNS3(=O)=O)c2CN1C(=O)Nc1cc(F)c(F)c(F)c1` (stereo partly drawn) [Example 26, (6S)-3-(4-hydroxy-1,1-dioxo-1,2,6-thiadiazinan-2-yl)-6-methyl-N-(3,4,5-trifluorophenyl)-6,7-dihydro-4H-pyrazolo[1,5-a]pyrazine-5-carboxamide], the pEC50 was 6.89.

With `C[C@H]1Cn2ncc(N3CCOCS3(=O)=O)c2CN1C(=O)Nc1cc(F)c(F)c(F)c1` [Example 24, (6S)-3-(3,3-dioxo-1,3,4-oxathiazinan-4-yl)-6-methyl-N-(3,4,5-trifluorophenyl)-6,7-dihydro-4H-pyrazolo[1,5-a]pyrazine-5-carboxamide], the pEC50 is 7.96.

For `C[C@H]1Cn2ncc(N3[C@@H](C)CNS3(=O)=O)c2CN1C(=O)Nc1cc(F)c(F)c(F)c1` [Example 22, (6S)-6-methyl-3-[(3S)-3-methyl-1,1-dioxo-1,2,5-thiadiazolidin-2-yl]-N-(3,4,5-trifluorophenyl)-6,7-dihydro-4H-pyrazolo[1,5-a]pyrazine-5-carboxamide], the pEC50 is 7.57.

Turning to `C[C@H]1Cn2ncc(N3CCCS3(=O)=O)c2CN1C(=O)Nc1ccccc1F` [Example 8, (6S)-3-(1,1-dioxo-1,2-thiazolidin-2-yl)-N-(2-fluorophenyl)-6-methyl-6,7-dihydro-4H-pyrazolo[1,5-a]pyrazine-5-carboxamide], the pEC50 was 6.52.

With `C[C@H]1Cn2ncc(N3CCC[S+]3[O-])c2CN1C(=O)Nc1cc(F)c(F)c(F)c1` (stereo partly drawn) [Example 17, (6S)-6-methyl-3-(1-oxo-1,2-thiazolidin-2-yl)-N-(3,4,5-trifluorophenyl)-6,7-dihydro-4H-pyrazolo[1,5-a]pyrazine-5-carboxamide], the pEC50 is 7.07.

With `C[C@H]1Cn2ncc(N3CCN(C)S3(=O)=O)c2CN1C(=O)Nc1cc(F)c(F)c(F)c1` [Example 20, (6S)-6-methyl-3-(5-methyl-1,1-dioxo-1,2,5-thiadiazolidin-2-yl)-N-(3,4,5-trifluorophenyl)-6,7-dihydro-4H-pyrazolo[1,5-a]pyrazine-5-carboxamide], the pEC50 is 7.77.

With `CC(=O)N1CCN(c2cnn3c2CN(C(=O)Nc2cc(F)c(F)c(F)c2)[C@@H](C)C3)S(=O)(=O)C1` [Example 15, (6S)-3-(5-acetyl-1,1-dioxo-1,2,5-thiadiazinan-2-yl)-6-methyl-N-(3,4,5-trifluorophenyl)-6,7-dihydro-4H-pyrazolo[1,5-a]pyrazine-5-carboxamide], the pEC50 was 7.59.

In the case of `C[C@H]1Cn2ncc(N3CC(N4CCC[C@H]4C(=O)O)CS3(=O)=O)c2CN1C(=O)Nc1cc(F)c(F)c(F)c1` (stereo partly drawn) [Example 35, (2S)-1-[2-[(6S)-6-methyl-5-[(3,4,5-trifluorophenyl)carbamoyl]-6,7-dihydro-4H-pyrazolo[1,5-a]pyrazin-3-yl]-1,1-dioxo-1,2-thiazolidin-4-yl]pyrrolidine-2-carboxylic Acid], the pEC50 was 8.17.

In the case of `COC1CS(=O)(=O)N(c2cnn3c2CN(C(=O)Nc2cc(F)c(F)c(F)c2)[C@@H](C)C3)C1C` (stereo partly drawn) [Example 31, (6S)-3-(4-methoxy-3-methyl-1,1-dioxo-1,2-thiazolidin-2-yl)-6-methyl-N-(3,4,5-trifluorophenyl)-6,7-dihydro-4H-pyrazolo[1,5-a]pyrazine-5-carboxamide], the pEC50 was 8.01.

Take `C[C@H]1Cn2ncc(N3CCCS3(=O)=O)c2CN1C(=O)Nc1ccc(F)c(C#N)c1` [Example 5, (6S)—N-(3-cyano-4-fluoro-phenyl)-3-(1,1-dioxo-1,2-thiazolidin-2-yl)-6-methyl-6,7-dihydro-4H-pyrazolo[1,5-a]pyrazine-5-carboxamide]: the pEC50 is 7.85.

For the compound `C[C@H]1Cn2ncc(N3CCCS3(=O)=O)c2CN1C(=O)Nc1ccnc(Cl)c1` [Example 2, (6S)—N-(2-chloro-4-pyridyl)-3-(1,1-dioxo-1,2-thiazolidin-2-yl)-6-methyl-6,7-dihydro-4H-pyrazolo[1,5-a]pyrazine-5-carboxamide], the pEC50 is 7.10.

As for `C[C@H]1Cn2ncc(N3CC4COCCN4S3(=O)=O)c2CN1C(=O)Nc1cc(F)c(F)c(F)c1` (stereo partly drawn) [Example 12, (6S)-3-(1,1-dioxo-3a,4,6,7-tetrahydro-3H-[1,2,5]thiadiazolo[3,2-c][1,4]oxazin-2-yl)-6-methyl-N-(3,4,5-trifluorophenyl)-6,7-dihydro-4H-pyrazolo[1,5-a]pyrazine-5-carboxamide], the pEC50 is 7.40.

As for `CC1C(Oc2ncccn2)CS(=O)(=O)N1c1cnn2c1CN(C(=O)Nc1cc(F)c(F)c(F)c1)[C@@H](C)C2` (stereo partly drawn) [Example 30, (6S)-6-methyl-3-(3-methyl-1,1-dioxo-4-pyrimidin-2-yloxy-1,2-thiazolidin-2-yl)-N-(3,4,5-trifluorophenyl)-6,7-dihydro-4H-pyrazolo[1,5-a]pyrazine-5-carboxamide], the pEC50 is 8.46.

For the compound `C[C@H]1Cn2ncc(N3CCCS3(=O)=O)c2CN1C(=O)Nc1ccc2ncsc2c1` [Example 9, (6S)—N-(1,3-benzothiazol-6-yl)-3-(1,1-dioxo-1,2-thiazolidin-2-yl)-6-methyl-6,7-dihydro-4H-pyrazolo[1,5-a]pyrazine-5-carboxamide], the pEC50 is 6.59.

Take `C[C@H]1Cn2ncc(N3CCCS3(=O)=O)c2CN1C(=O)Nc1ccc(F)c(C(F)(F)F)c1` [Example 7, (6S)-3-(1,1-dioxo-1,2-thiazolidin-2-yl)-N-[4-fluoro-3-(trifluoromethyl)phenyl]-6-methyl-6,7-dihydro-4H-pyrazolo[1,5-a]pyrazine-5-carboxamide]: the pEC50 is 8.01.

For `CC1NS(=O)(=O)N(c2cnn3c2CN(C(=O)Nc2cc(F)c(F)c(F)c2)[C@@H](C)C3)[C@H]1C` (stereo partly drawn) [Example 23, (6S)-3-[(3S)-3,4-dimethyl-1,1-dioxo-1,2,5-thiadiazolidin-2-yl]-6-methyl-N-(3,4,5-trifluorophenyl)-6,7-dihydro-4H-pyrazolo[1,5-a]pyrazine-5-carboxamide], the pEC50 was 7.28.

Still in this experiment, the particulars now being: five days after compound treatment, extracellular HBV DNA in culture supernatant by qPCR, read-out: EC50 (effective compound concentration at which HBV replication was inhibited by 50%).
`CC1Cn2nnc(N3CCCS3(=O)=O)c2CN1C(=O)Nc1cc(F)c(F)c(F)c1` (single isomer, unassigned) [Example 33-1, 3-(1,1-dioxo-1,2-thiazolidin-2-yl)-6-methyl-N-(3,4,5-trifluorophenyl)-6,7-dihydro-4H-triazolo[1,5-a]pyrazine-5-carboxamide]: the pEC50 is 7.62.
